# Measurements from patent publication US7902346B2, “Fusion protein comprising FK506 binding protein and DNA encoding the same” (Industry Academic Cooperation Foundation, Hallym University, priority 2006, dated 2011).
# Experiments:
# epidermis of mouse = assay: Penetration of fusion protein into epidermis of mouse; settings: in vivo
# cyclooxygenase-2 = assay: Immunity inhibition effect: lipopolysaccharide-induced cyclooxygenase-2 expression in skin cells, Western blot; assay type: cell-based, human
# Procedure: Thereafter, one of 3 kinds of the fusion protein of FK506BP was added to the each group of cells, respectively. After lipopolysaccharides were added, the expression of cyclooxygenase-2 was monitored via the Western Blot analysis.
# [1] = tested on: human skin primary fibroblast cells; assay: Intracellular transduction of fusion protein into skin cells, Western blot analysis; assay type: cell-based
# Procedure: The human skin primary fibroblast cells obtained from Catholic University medical school (Korea) were cultured in Dulbecco's modified Eagle's medium (DMEM) containing 20 mM HEPES/NaOH (pH 7.4), 5 mM NaHCO3, 10% fetal bovine serum (FBS) and antibiotics ([…], 100 U/ml penicillin) at 37° C. under a humidified condition of 95% air and 5% CO2. For the transduction of Pep-1-FK506 binding proteins, skin cells were grown about […] to confluence on a 6-well plate. The culture medium was then replaced with fresh solution containing 10% fetal bovine serum. After skin cells were treated with one of 3 kinds of fusion protein of the FK506 binding protein (Pep-1 peptide is bound C-, N- or C-/N-terminus of FK506 binding protein respectively) for 1 hr, the cells were then treated with trypsin-EDTA and washed with phosphate-buffered saline (PBS). Thereafter the cells were harvested for the preparation of cell extracts to perform Western blot analysis.
# Western blot analysis was performed to identify intracellular transduction of the fusion protein of FK506 binding protein. The protein was purified in nature form. […]
# The transduced Pep-1-FK506BP proteins on the polyacrylamide gel were electrophoretically transferred to a nitrocellulose membrane. […]
substance,measurement,setting,value
Pep-1-FK506BP: Fusion protein of human FK506 binding protein with Pep-1 peptide (SEQ ID NO: 3) and six histidines at the amino terminus; Seq. No. 7,penetration into epidermis of mouse,epidermis of mouse,effectively penetrated
same,apoptosis induced by lipopolysaccharides,cyclooxygenase-2,inhibited apoptosis
same,"effect on lipopolysaccharide-induced cyclooxygenase-2 expression, treatment together with FK506","cyclooxygenase-2; fusion protein together with FK506, compared with fusion protein alone",more effective
same,expression of cyclooxygenase-2 induced by lipopolysaccharides,"cyclooxygenase-2; western blot (FIG. 5), 10 μM fusion protein",inhibited
same,transduction into skin cells (western blot),"[1]; native fusion protein, 0.5-5 μM for 60 min and 5 μM for 10-60 min (FIG. 3)",transduced into skin cells in a time- and concentration-dependent manner
same,time in which the protein was transduced,[1]; skin cells treated with 5 μM for 10-60 min (FIG. 3B),≤ 10 min
